{
  "source": "patent US8097585B2",
  "about": "“Methods of treating inflammation by administration of heme oxygenase-1 and products of heme degradation” (priority 2002, dated 2012)",
  "key": {"nitric oxide": {"system": "nitric oxide", "assay": "Serum nitrite/nitrate, SITx with preserved intestine", "type": "in vivo, LEW rats", "experimental": "Detection of Serum Mediators. Serum samples from the recipients transplanted with preserved intestine were taken at 3 and 12 hours after reperfusion and stored at […] until evaluation. Serum IL-6 was determined using a rat enzyme-linked immunoassay (ELISA) kits as described by the manufacturer (R & D Systems, Inc., Cambridge, Mass.). To monitor the production of nitric oxide, the stable end products of NO metabolism, serum nitrite/nitrate levels, were measured 12 hours after engraftment using a commercially available test kit (Cayman, Ann Arbor, Mich.). In this assay system, nitrate is reduced to nitrite using nitrate reductase, and the nitrite concentration of the sample is subsequently measured using the Griess reaction."}, "ICAM-1": {"system": "ICAM-1", "assay": "Real time RT-PCR of graft muscularis after SITx, ICAM-1", "type": "in vivo, LEW rats", "conditions": "BV treatment", "experimental": "(§1) Small Intestinal Transplantation. Orthotopic small intestinal transplantation (SITx) was performed in syngeneic Lewis rats. SITx with caval drainage was performed using a previously described procedure (Murase et al., in Handbook of Animal Models in Transplantation Research, Cramer et al., Eds. CRC Press, Boca Raton, Fla., pp. 203-213 (1994)). […] The graft was perfused via the aortic segment with 5 ml chilled Ringer's lactate solution, and the intestinal lumen was irrigated with 20 ml of cold saline solution containing 0.5% neomycin-sulfate (Sigma, St. Louis, Mo.). […]\n(§2) SYBR green real time RT-PCR. The effects of administration of biliverdin on transplant-induced pro-inflammatory and anti-inflammatory gene expression were assessed in muscularis extracts by RT-PCR Biliverdin ([…], i.p.) was administered to both the donor and recipient three hours preoperatively. […] Equal aliquots (5 μg) of total RNA from each sample were quantified by spectrophotometry (wavelength […]) and aliquoted at a concentration of 40 ng/μl. Peak mRNA expression was quantified in duplicate by SYBR Green two-step, real-time RT-PCR. […] Real-time PCR data were plotted as the ΔRn fluorescence signal versus the cycle number. […] Quantification of mRNA expression was normalized to GAPDH and calculated relative to control using the comparative CT method (Schmittgen et al., J. Biochem. Biophys. Methods 46(1-2):69-8, 2000). […]"}, "HO-1": {"system": "HO-1", "assay": "HO-1 induction during intestinal I/R injury", "type": "in vivo, LEW rats", "conditions": "BV treatment", "experimental": "HO-1 Induction During Intestinal I/R Injury. Since HO-1 regulates heme catalysis and BV production, exogenously provided BV may influence endogenous HO-1 induction in BV-treated recipients. In the normal intestine, HO-1 protein expression was absent. Ischemia/reperfusion injury was associated with a gradual increase of HO-1 expression in air-treated grafts, reaching maximum level between 6 and 24 hours following reperfusion."}, "IL-10": {"system": "IL-10", "assay": "Real time RT-PCR of graft muscularis after SITx, IL-10", "type": "in vivo, LEW rats", "conditions": "BV treatment, 4 hours", "experimental": "as §1, §2"}, "IL-1β": {"system": "IL-1β", "assay": "Real time RT-PCR of graft muscularis after SITx, IL-1β", "type": "in vivo, LEW rats", "conditions": "BV 50 mmol/kg i.p. donor and recipient; 4 hours; versus saline-treated graft", "experimental": "as §1, §2"}, "fulminant hepatitis": {"system": "fulminant hepatitis", "assay": "TNF-α/D-Galactosamine hepatitis model, serum ALT", "type": "in vivo, mice (C57BL/6J)", "experimental": "Male mice (C57BL/6J) were administered biliverdin ([…], i.p.) 16 hours and 1 hour prior to i.p. injection of a cocktail including 0.3 ug/mouse TNF-α (mouse TNF-α; Gibco) and 250 mg/kg, i.p. D-Galactosamine (Sigma), which induces fulminant hepatitis within 6-10 hours. Control mice received PBS vehicle. Serum samples were taken via cardiac puncture 6-8 hours later and analyzed for alanine aminotransferase (ALT) per an ALT assay kit from Sigma Chem. Co. following the manufacturer's directions."}, "B6AF1 splenocytes": {"system": "B6AF1 splenocytes", "assay": "Mixed lymphocyte culture (irradiated DBA/2 splenocytes as stimulators) in vitro", "type": "cell-based, mouse", "conditions": "biliverdin 10 μM", "experimental": "Mixed lymphocyte culture (MLC). Irradiated (25Gy, ^137Cs) DBA/2 splenocytes (5×10^5/well) were co-cultured with responders (5×10^5/well) in a 96 well round bottom plates for 3 days at 37° C., 95% air with 5% CO2. When using cells from cardiac recipients as responders, the co-culture period was 3 days without any further in vitro treatment. ^3H-thymidine (1 μCi/well) was added 16 hours before termination of cell culture, and ^3H-thymidine incorporation was measured."}},
  "note": "Where a name gives a salt, the structure may show the parent alone.",
  "data": [
    {"smiles": "C=CC1=C(C)/C(=C/C2=NC(=C\\c3[nH]c(/C=C4\\NC(=O)C(C)=C4C=C)c(C)c3CCC(=O)O)/C(CCC(=O)O)=C2C)NC1=O", "note": "[biliverdin, biliverdin dihydrochloride]", "values": [
      {"measurement": "mean serum nitrite/nitrate (NO) level", "setting": "nitric oxide; BV treated controls (no transplant)", "result": "18.4 ± 3.2", "unit": "µM"},
      {"measurement": "decrease of transplantation-induced serum NO levels", "setting": "nitric oxide; SITx, 12 hours after engraftment", "result": 53, "unit": "%"},
      {"measurement": "serum NO level", "setting": "nitric oxide; SITx, 12 hours after engraftment, untreated 34.4±15.2", "result": "18.2 ± 3.9", "unit": "µM"},
      {"measurement": "reduction of ICAM-1 expression in the graft", "setting": "ICAM-1", "result": "up to 30%"},
      {"measurement": "intestinal HO-1 production", "setting": "HO-1", "result": "did not have a significant effect"},
      {"measurement": "upregulation of IL-10 mRNA caused by transplantation", "setting": "IL-10", "result": "did not significantly change"},
      {"measurement": "reduction of IL-1b mRNA expression", "setting": "IL-1β", "result": 30, "unit": "%"},
      {"measurement": "serum ALT", "setting": "fulminant hepatitis; 6-8 hours after TNF-α/D-Galactosamine, control about 1000, normal 20-30", "result": "~100", "unit": "IU/ml"},
      {"measurement": "reduction of serum ALT levels compared to vehicle treated controls", "setting": "fulminant hepatitis; biliverdin 50 mmol/kg i.p. 16 hours and 1 hour prior to TNF-α/D-Galactosamine", "result": "more than 90%"},
      {"measurement": "alloantigen mediated T cell activation (proliferation)", "setting": "B6AF1 splenocytes", "result": "significant suppressive effect"}
    ]}
  ]
}
